Each block holds one molecule with its values, some of them ahead of it. Calls of active or inactive are those of the source. The calls are words filed in the database; no cut-off is given here. Square brackets hold non-standard residues; d marks the D form. Peptide text beside a SMILES is read from it. * marks the point of attachment. ξ: configuration not given here. C16 diacid = O=C(O)CCCCCCCCCCCCCCC(=O)*; Stearoyl = CCCCCCCCCCCCCCCCCC(=O)*; Decanoyl = CCCCCCCCCC(=O)*; ξR = N=C(N)NCCCC(N)C(=O)O
Legend:
[1] = target: T1, Tyrosine-protein phosphatase non-receptor type 1 (Homo sapiens) (UniProt P18031); test: Inhibition of N-terminal His tagged recombinant human PTP1B expressed in Escherichia coli using pNPP as substrate assessed as substrate hydrolysis at 40 umol/L relative to control; conditions: dose 40.0 µmol/L
T1 sequence (whole entry): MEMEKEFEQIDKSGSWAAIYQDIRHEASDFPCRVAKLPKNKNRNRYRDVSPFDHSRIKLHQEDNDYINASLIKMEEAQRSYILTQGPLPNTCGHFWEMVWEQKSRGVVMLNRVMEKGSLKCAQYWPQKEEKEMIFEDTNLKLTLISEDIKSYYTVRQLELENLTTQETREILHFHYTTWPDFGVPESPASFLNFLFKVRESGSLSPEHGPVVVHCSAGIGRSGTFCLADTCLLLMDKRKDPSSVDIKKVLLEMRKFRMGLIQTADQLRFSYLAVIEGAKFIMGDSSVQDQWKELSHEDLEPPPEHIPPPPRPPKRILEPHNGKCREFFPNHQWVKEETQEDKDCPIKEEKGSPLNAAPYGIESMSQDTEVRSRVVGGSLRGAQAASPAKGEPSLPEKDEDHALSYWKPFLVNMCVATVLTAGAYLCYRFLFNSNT

[2] = target: T2, Tyrosine-protein phosphatase non-receptor type 1 (Homo sapiens, UniProt P18031); test: Inhibition of N-terminal His tagged recombinant human PTP1B expressed in Escherichia coli using pNPP as substrate assessed as substrate hydrolysis
T2 sequence (P18031 whole entry): T1 sequence (whole entry)

[3] = target: T3, Tyrosine-protein phosphatase non-receptor type 2 (Homo sapiens, UniProt P17706); test: Inhibition of recombinant human TC-PTP (1 to 314 residues) expressed in baculovirus infected insect cells using pNPP as substrate assessed as substrate hydrolysis; set-up: species or system Insect cell
T3 sequence (P17706 whole entry): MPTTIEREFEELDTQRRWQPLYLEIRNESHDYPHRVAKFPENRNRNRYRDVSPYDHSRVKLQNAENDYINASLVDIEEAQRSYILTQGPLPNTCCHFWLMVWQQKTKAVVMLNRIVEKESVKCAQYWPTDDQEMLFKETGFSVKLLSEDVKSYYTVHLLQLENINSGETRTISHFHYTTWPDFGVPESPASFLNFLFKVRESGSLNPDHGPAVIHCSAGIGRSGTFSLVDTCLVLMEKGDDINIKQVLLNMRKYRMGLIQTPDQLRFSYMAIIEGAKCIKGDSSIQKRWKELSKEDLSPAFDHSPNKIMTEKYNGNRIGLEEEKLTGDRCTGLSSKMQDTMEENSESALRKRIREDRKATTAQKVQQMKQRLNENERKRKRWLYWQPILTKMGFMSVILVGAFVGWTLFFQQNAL

[4] = organism: Homo sapiens; test: Selectivity index, ratio of IC50 for inhibition of recombinant human TC-PTP (1 to 314 residues) expressed in baculovirus infected insect cells to IC50 for inhibition of N-terminal His-tagged recombinant human PTP1B expressed in Escherichia coli
[5] = tested on: Proteinase K; test: Stability of compound assessed as Proteinase K (unknown origin) mediated compound degradation by measuring half-life by HPLC analysis; assay type: ADME
[6] = tested on: Pepsin; test: Stability of compound assessed as Pepsin (unknown origin) mediated compound degradation by measuring half-life by HPLC analysis; assay type: ADME; conditions: human
[7] = target: chymotrypsin (Homo sapiens, UniProt P17538+P40313+Q6GPI1+Q99895); test: Stability of compound assessed as chymotrypsin (unknown origin) mediated compound degradation by measuring half-life by RP-HPLC analysis; assay type: ADME, protein assay
[8] = target: T4, carboxypeptidase A (Homo sapiens, UniProt P15085); test: Stability of compound assessed as carboxypeptidase A (unknown origin) mediated compound degradation by measuring half-life by RP-HPLC analysis; assay type: ADME
T4 sequence (P15085 whole entry): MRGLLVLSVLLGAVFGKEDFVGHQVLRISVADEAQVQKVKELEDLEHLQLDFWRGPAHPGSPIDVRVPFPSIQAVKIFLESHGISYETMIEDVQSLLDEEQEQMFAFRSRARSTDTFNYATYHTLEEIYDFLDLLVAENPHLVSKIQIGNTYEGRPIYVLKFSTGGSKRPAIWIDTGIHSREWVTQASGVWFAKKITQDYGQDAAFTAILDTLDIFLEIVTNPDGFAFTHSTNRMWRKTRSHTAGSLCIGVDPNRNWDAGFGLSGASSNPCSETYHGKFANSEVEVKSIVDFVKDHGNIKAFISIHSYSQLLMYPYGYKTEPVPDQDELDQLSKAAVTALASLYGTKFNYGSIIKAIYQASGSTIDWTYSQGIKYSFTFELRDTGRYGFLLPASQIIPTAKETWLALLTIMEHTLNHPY

[9] = Stability of compound assessed as Proteinase K (unknown origin) mediated compound degradation by measuring fold change of half-life by HPLC analysis relative to BimBH312-mer peptide; assay type: ADME
[10] = Stability of compound assessed as Pepsin (unknown origin) mediated compound degradation by measuring fold change of half-life by HPLC analysis relative to BimBH312-mer peptide; assay type: ADME; conditions: human
[11] = target: Chymotrypsin (Homo sapiens, UniProt Q99895+P17538+P40313+Q6GPI1); test: Stability of compound assessed as chymotrypsin (unknown origin) mediated compound degradation by measuring fold change of half-life by RP-HPLC analysis relative to BimBH312-mer peptide; assay type: ADME, protein assay
[12] = target: T5, Carboxypeptidase A1 (Homo sapiens, UniProt P15085); test: Stability of compound assessed as carboxypeptidase A (unknown origin) mediated compound degradation by measuring fold change of half-life by RP-HPLC analysis relative to BimBH312-mer peptide; assay type: ADME
T5 sequence (P15085 whole entry): T4 sequence (P15085 whole entry)

[13] = tested on: Mus musculus; test: Antidiabetic activity against C57BL/Ks db/db mouse assessed as redcution in fasting blood glucose level at 1 umol/kg administered subcutaneously and measured immediately by glucometer analysis (reference value: 19.0 +/- 2.7 […]); assay type: functional; conditions: dose 1 µmol/kg; route sc
[14] = tested on: Mus musculus; test: Antidiabetic activity against C57BL/Ks db/db mouse assessed as redcution in fasting blood glucose level at 1 umol/kg, sc administered once a week and measured on day 8 by glucometer analysis (reference value: 27.7 +/- 3.7 […]); assay type: functional; conditions: dose 1 µmol/kg, time 8 day
[15] = tested on: Mus musculus; test: Antidiabetic activity against C57BL/Ks db/db mouse assessed as redcution in fasting blood glucose level at 1 umol/kg, sc administered once a week and measured on day 15 by glucometer analysis (reference value: 27.3 +/- 2.4 […]); assay type: functional; conditions: dose 1 µmol/kg, time 15 day
[16] = tested on: Mus musculus; test: Antidiabetic activity against C57BL/Ks db/db mouse assessed as redcution in fasting blood glucose level at 1 umol/kg, sc administered once a week and measured on day 22 by glucometer analysis (reference value: 27.4 +/- 1.8 […]); assay type: functional; conditions: dose 1 µmol/kg, time 22 day
[17] = tested on: Mus musculus; test: Antidiabetic activity against C57BL/Ks db/db mouse assessed as redcution in fasting blood glucose level at 1 umol/kg, sc administered once a week and measured on day 24 by glucometer analysis (reference value: 30.2 +/- 3.2 […]); assay type: functional; conditions: dose 1 µmol/kg, time 24 day
[18] = tested on: Mus musculus; test: Antidiabetic activity against C57BL/Ks db/db mouse assessed as redcution in fasting blood glucose level at 1 umol/kg, sc administered once a week and measured on day 26 by glucometer analysis (reference value: 31.4 +/- 2.2 […]); assay type: functional; conditions: dose 1 µmol/kg, time 26 day
[19] = tested on: Mus musculus; test: Antidiabetic activity against C57BL/Ks db/db mouse assessed as redcution in fasting blood glucose level at 1 umol/kg, sc administered once a week and measured on day 28 by glucometer analysis (reference value: 32.4 +/- 1.1 […]); assay type: functional; conditions: dose 1 µmol/kg, time 28 day
[20] = tested on: Mus musculus; test: Antidiabetic activity against over-night fasted C57BL/ks db/db mouse assessed as suppression of increased blood glucose concentration at 1 uM/kg, sc pretreated with compound for 4 weeks followed by oral glucose stimulation and measured upto 120 mins by oral glucose tolerance test; assay type: functional, organism-based; conditions: time 40440.0 min
[21] = tested on: Mus musculus; test: Antidiabetic activity against over-night fasted C57BL/ks db/db mouse assessed as suppression of increased blood glucose concentration at 1 uM/kg, sc pretreated with compound for 4 weeks followed by insulin stimulation and measured for 90 mins by insulin tolerance test; assay type: functional, organism-based; conditions: time 40410.0 min
[22] = tested on: Mus musculus; test: Antidiabetic activity against sc dosed C57BL/Ks db/db mouse assessed as reduction in serum insulin level at 1 umol/kg by ELISA analysis; assay type: functional, organism-based; conditions: dose 1.0 µmol/kg
[23] = tested on: Mus musculus; test: Antidiabetic activity against sc dosed C57BL/Ks db/db mouse assessed as reduction in C-peptide level at 1 umol/kg by ELISA analysis; assay type: functional, organism-based; conditions: dose 1.0 µmol/kg
[24] = tested on: Mus musculus; test: Antidiabetic activity against sc dosed C57BL/Ks db/db mouse assessed as reduction in glucagon level at 1 umol/kg by ELISA analysis; assay type: functional, organism-based; conditions: dose 1.0 µmol/kg

- inhibition [1]: > 50%
- IC50 [2]: 120 nM
- IC50 [3]: 13600 nM
- half-life [5]: 1.43 h
- half-life [6]: 7.36 h
- half-life [7]: 7.33 h
- half-life [8]: 17.6 h
- fold change (FC) [9]: 28.6
- fold change (FC) [10]: 334.5
- fold change (FC) [11]: 170.5
- fold change (FC) [12]: 549.1
Structure (SMILES): CCCCCCCCCCCCCCCCCC(=O)N[C@H](C(=O)N[C@@H](C)C(=O)N[C@@H](CCC(N)=O)C(=O)N[C@@H](CCC(=O)O)C(=O)N[C@@H](CC(C)C)C(=O)N[C@@H](CCCNC(=N)N)C(=O)NC(CCCNC(=N)N)C(=O)N[C@H](C(=O)NCC(=O)N[C@@H](CC(=O)O)C(=O)N[C@@H](CCC(=O)O)C(=O)N[C@@H](Cc1ccccc1)C(=O)O)[C@@H](C)CC)[C@@H](C)CC (stereo partly drawn) (Stearoyl-IAQELR[ξR]IGDEF-OH)
- Ratio IC50 [4]: 113
- Fasting blood glucose level [13]: 20.4 mmol/L
- Fasting blood glucose level [14]: 11.8 mmol/L
- Fasting blood glucose [15]: 12.8 mmol/L
- Fasting blood glucose level [16]: 15.6 mmol/L
- Fasting blood glucose level [17]: 18.1 mmol/L
- Fasting blood glucose level [18]: 16.3 mmol/L
- Fasting blood glucose level [19]: 19.8 mmol/L
- Activity [20]: Active
- Activity [21]: Active
- Activity [22]: Active
- Activity [23]: Active
- Activity [24]: Active

- inhibition [1]: > 50%
- IC50 [2]: 2880 nM
Structure (SMILES): CC[C@H](C)[C@H](NC(=O)CCCCCCCCCCCCCCC(=O)O)C(=O)N[C@@H](C)C(=O)N[C@@H](CCC(N)=O)C(=O)N[C@@H](CCC(=O)O)C(=O)N[C@@H](CC(C)C)C(=O)N[C@@H](CCCNC(=N)N)C(=O)N[C@@H](CCCNC(=N)N)C(=O)N[C@H](C(=O)NCC(=O)N[C@@H](CC(=O)O)C(=O)N[C@@H](CCC(=O)O)C(=O)N[C@@H](Cc1ccccc1)C(=O)O)[C@@H](C)CC ({C16 diacid}-IAQELRRIGDEF-OH)

- inhibition [1]: > 50%
- IC50 [2]: 2140 nM
Structure (SMILES): CCCCCCCCCC(=O)N[C@H](C(=O)N[C@@H](C)C(=O)N[C@@H](CCC(N)=O)C(=O)N[C@@H](CCC(=O)O)C(=O)N[C@@H](CC(C)C)C(=O)N[C@@H](CCCNC(=N)N)C(=O)N[C@@H](CCCNC(=N)N)C(=O)N[C@H](C(=O)NCC(=O)N[C@@H](CC(=O)O)C(=O)N[C@@H](CCC(=O)O)C(=O)N[C@@H](Cc1ccccc1)C(=O)O)[C@@H](C)CC)[C@@H](C)CC (Decanoyl-IAQELRRIGDEF-OH)

From ChEMBL document CHEMBL5316338, “Discovery of Novel PTP1B Inhibitors with Once-Weekly Therapeutic Potential for Type 2 Diabetes: Design, Synthesis, and In Vitro and In Vivo Investigations of BimBH3 Peptide Analogues” (J Med Chem, 2023)
